Results reported in ChEMBL document CHEMBL1201862, “PubChem BioAssay data set” (2004).
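Test compounds were applied to cells in 96-well plates for 48 hours at 5 doses. GI50 = concentration required for 50% inhibition of growth.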 Active and inactive are the calls of the source. Rule as the data show it: active = GI50 up to about 1.1 µM and inactive = higher.

What was measured:
Assay in all cases: NCI anticancer screen, dose series, 48 h
[1] = system: ACHN
[2] = system: KM12
[3] = system: A498
[4] = system: A549
[5] = system: MDA-MB-231
[6] = system: UO-31
[7] = system: CCRF-CEM
[8] = system: MCF7
[9] = system: Hs-578T
[10] = system: NCI-H226
[11] = system: BT-549
[12] = system: HCC 2998
[13] = system: OVCAR-8
[14] = system: HT-29
[15] = system: U-251
[16] = system: NCI-H460
[17] = system: M14
[18] = system: MDA-N
[19] = system: SK-OV-3
[20] = system: MOLT-4

Measured: GI50

S=c1sc2c(s1)SCCCCSCCCCSc1sc(=S)sc1SCCCCSCCCCS2
inactive: [1] > 100 µM | [2] > 100 µM | [3] > 100 µM | [4] > 100 µM | [5] > 100 µM | [6] > 100 µM | [7] > 100 µM | [8] > 100 µM | [9] 30.2 µM | [10] > 100 µM | [11] > 100 µM | [12] > 100 µM | [13] > 100 µM | [14] > 100 µM | [15] > 100 µM | [16] > 100 µM | [17] > 100 µM | [18] > 100 µM | [19] > 100 µM | [20] > 100 µM
